“Also recorded” adds a separate entry of the source.
Tests used:
[1] = test system: TRAF6 auto-ubiquitination in Jurkat T-cells; assay: Immunoprecipitation of TRAF6 for endogenous ubiquitination, Jurkat T-cells; assay type: cell-based, human; conditions: PMA/Ionomycin
[2] = test system: TRAF6 auto-ubiquitination in MEF cells; assay: Immunoprecipitation of TRAF6 for endogenous ubiquitination, MEF cells; assay type: cell-based, mouse
Experimental: 2.5×10^6 MEF cells were seeded, treated with compound for 6 hours and stimulated with IL-1β (3.5 ng/mL) for 10 minutes. Cells were lysed in Co-IP lysis buffer containing 1% SDS to eliminate all cellular interactions. After cell lysis and removal of input samples, the samples were diluted to 0.1% SDS and incubated with 5 μL TRAF6 antibody EP591Y (Abcam) and immunoprecipitated with Protein-G-Sepharose beads. After washing of the beads in Co-IP wash buffer, TRAF6 protein was eluted and levels of TRAF6 ubiquitination were detected by Western Blot analysis.

[3] = target: T1, TRAF6 RZ1 protein (Homo sapiens, UniProt Q9Y4K3); assay: Two-dimensional NMR (SOFAST-HMQC) binding experiment; conditions: protein:compound 1:5
T1 construct: GST (N, cleaved yes); made in house; host or cells: E. coli BL21 codon plus RIPL, M9 medium with 15NH4
Experimental: To determine whether the inhibitory compounds directly bind to TRAF6 rather than to Ubc13, 2D-NMR experiments were conducted. Untagged ^15N-labeled TRAF6 RZ1 protein (c=120 μM) and compound (c=20 mM) were incubated at a ratio of 1:5 in a 3 mm NMR tube for 10 minutes before spectra acquisition. To observe chemical shift perturbations upon compound addition, two-dimensional SOFAST-HMQC spectra were acquired. All measurements were performed using the Bruker Avance 600 MHz spectrometer.

[4] = target: T2, TRAF6-Ubc13 binding in HEK293T cells (Homo sapiens, UniProt Q9Y4K3); assay: Co-immunoprecipitation of HA-TRAF6 and Ubc13 in HEK 293T cells; assay type: cell-based
T2 construct: RING-Zincfinger1 (RZ1) domain (residues 50-159) of human TRAF6 wildtype; expressed in transfected cells; host or cells: HEK 293T
T2 sequence (Q9Y4K3 50-159): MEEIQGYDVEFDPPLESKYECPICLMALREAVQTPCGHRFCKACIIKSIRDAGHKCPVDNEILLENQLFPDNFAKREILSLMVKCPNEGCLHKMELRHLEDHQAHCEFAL
Experimental: To study the interaction of TRAF6 and Ubc13 in cells, 1×10^6 293T cells were seeded and after 18 hours cells were transfected with 1 μg pEF-HA empty or pEF-HA-TRAF6 RZ1 plasmid using the X-tremeGENE HP DNA transfection reagent (Roche). 6 hours upon transfection, cells were treated with compound or DMSO. After 42 hours further incubation, cells were harvested in Co-IP lysis buffer and HA-TRAF6 was immunoprecipitated with anti-HA affinity matrix (Roche). Binding of Ubc13 to TRAF6 was examined in Western Blot analysis.

[5] = test system: NF-κB activation in Jurkat T-cells; assay: EMSA for NF-κB activation in Jurkat T-cells; assay type: cell-based, human; conditions: PMA/Ionomycin
Experimental: For compound treatment, MEF cells were seeded in 6 well plates at 1.2×10^5 cells/well the day before treatment. Jurkat T-cells were seeded directly before treatment at 2×10^5 cells/sample. Six hours after compound or DMSO treatment cells were stimulated as indicated. Thereby, MEF cells were left untreated or stimulated with recombinant mouse IL-1β (1 ng/mL) or TNFα (10 ng/mL) for 20 minutes. Jurkat T-cells were stimulated with Phorbol-12-myristat-13-acetet (PMA) (400 ng/mL) and lonomycin (600 ng/mL) for 30 minutes. Eventually, cells were lysed in high-salt lysis buffer (20 mM HEPES pH 7.9; 350 mM NaCl; 1 mM MgCl2; 0.5 mM EDTA; 0.1 mM EGTA; 20% Glycerol; 1% NP-40; 10 mM NaF; 8 mM β-Glycerophosphate; 1 mM DTT; 300 μM Sodium-vanadate; complete protease inhibitor) and analyzed in EMSA assays using H2K (NF-κB) or Oct-1 (loading control) probes.

[6] = test system: Jurkat T-cells; assay: CellTiter-Glo viability assay, Jurkat T-cells; assay type: cell-based, human; conditions: 6 or 24 hours incubation
Experimental: (§1) For cell viability experiments using the CellTiter-Glo® 2.0 system (Promega), MEF cells (1.2×10^3 cells/well), HepG2 cells (4×10^3 cells/well) and Jurkat T-cells (5×10^3 cells/well) were seeded in 384 well plates. After 18 hours, cells were treated with compounds using the Sciclone G3 automation system. After 6 or 24 hours incubation, the luciferase measurement was performed according to the manufacturer's manual.

[7] = test system: HepG2 cells; assay: CellTiter-Glo viability assay, HepG2 cells; assay type: cell-based; conditions: 6 or 24 hours incubation
Experimental: as §1

[8] = test system: U2OS cells; assay: Cell cycle assessment (propidium iodide), U2OS cells; assay type: cell-based; conditions: 24 hours and 72 hours
Experimental: For cell cycle staining, cells were seeded at 2×10^5 cells per sample and treated with compound or DMSO. After the indicated incubation time (24 or 72 hours), cells were fixed in 100% Ethanol and subsequently stained with the Propidium Iodide staining solution (0.1% Triton X-100; 20 μg/ml Propidium Iodide; 200 μg/ml RNAse A in PBS) for 40 min in the dark. The Propidium Iodide fluorescence was collected using the Attune Flow Cytometer (Thermo Fisher Scientific). Analysis was performed using the Single Cell analysis software FlowJo.

[9] = test system: MEF cells; assay: CellTiter-Glo viability assay, MEF cells; assay type: cell-based, mouse; conditions: 6 or 24 hours incubation
Experimental: as §1

[10] = target: T3, TRAF6 (Homo sapiens, UniProt Q9Y4K3); assay: In vitro ubiquitination assay (Western blot), TRAF6 with Ubc13/Uev1a; assay type: biochemical
T3 construct: GST (N, cleaved yes); made in house; host or cells: E. coli BL21 codon plus RIPL (TRAF6); E1, E2 complex and ubiquitin from Boston Biochem
Experimental: The ability of TRAF6 to form K63-linked poly-ubiquitin chains in conjunction with Ubc13 was analyzed after compound treatment. Therefore, untagged TRAF6WT and TRAF6D57K, respectively were recombinantly purified. 0.125 μM of TRAF6 protein was pre-incubated with DMSO or compound in a total volume of 100 μL in K63 assay buffer ([…] Tris —HCl pH 7.6; […] MgCL2; […] creatine phosphate; 0.3 U/mL inorganic pyrophosphatase; 0.3 U/mL creatine phosphokinase) for 30 minutes at room temperature. Small aliquots for input samples were taken. A master mix containing 0.01 μM E1-activating enzyme (UBE1) (Boston Biochem), 0.2 μM E2-conjugating enzyme complex (Ubc13/Uev1a) (Boston Biochem), 1 mM ZnCl2, 2 mM ATP und 4 μM mono-ubiquitin (Boston Biochem) was added to the TRAF6 protein and the reaction mixture was incubated for 120 minutes at 37° C. The reaction was stopped by adding 4×SDS loading buffer and boiling at 95° C. for 5 minutes. The input samples were analyzed using the Pierce Silver Stain Kit (Thermo Fisher Scientific). Ubiquitination was detected in Western Blot analysis using an ubiquitin antibody.

T3 sequence (Q9Y4K3 with tags, fused parts or gaps): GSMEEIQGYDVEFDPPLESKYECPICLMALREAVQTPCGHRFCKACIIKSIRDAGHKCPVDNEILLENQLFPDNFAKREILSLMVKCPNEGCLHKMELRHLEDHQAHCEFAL
T1 sequence (Q9Y4K3 with tags, fused parts or gaps): as above

With Cc1nn(-c2ccc3nnc(C)n3n2)c(C)c1CCC(=O)N1CCC(Cc2ccccc2)CC1 [Example C25-140, 1-(4-Benzylpiperidin-1-yl)-3-(3,5-dimethyl-1-(3-methyl-[1,2,4]-triazolo-[4,3-b]-pyridazin-6-yl)-1H-pyrazol-4-yl)-propan-1-one] the “TRAF6 auto-ubiquitination upon TCR stimulation” value [1] was “dose-dependently diminished; also recorded: dose-dependently reduced”, the “IL-1β-induced auto-ubiquitination of TRAF6” value [2] was “reduced TRAF6 auto-ubiquitination” and the “direct binding to TRAF6 RZ1 protein (shifting or disappearing of NMR peaks)” value [3] was “directly binds to the TRAF6 protein”. The “interaction of endogenous Ubc13 with HA-tagged TRAF6 (co-immunoprecipitation)” value [4] was “reduced interaction; also recorded: most active analogs; also recorded: dose-dependently decreases; also recorded: demonstrated inhibition of TRAF6-Ubc13 binding”, the NF-κB activation [5] was “reduced; also recorded: attenuated NF-κB activation” and the “metabolic activity and cell viability” value [6] was “did not considerably impact cell viability; also recorded: does not considerably affect metabolic activity and cell viability up to 50 μM; also recorded: at the highest dose of 100 μM toxicity is noticeable”. For the same compound, the “metabolic activity and cell viability” value [7] was “did not considerably impact cell viability; also recorded: does not considerably affect metabolic activity and cell viability up to 50 μM; also recorded: at the highest dose of 100 μM toxicity is noticeable”, the cell cycle progression [8] was “no effects on cell cycle phases; also recorded: not impaired” and the “metabolic activity and cell viability” value [9] was “did not considerably impact cell viability; also recorded: does not considerably affect metabolic activity and cell viability up to 50 μM; also recorded: at the highest dose of 100 μM toxicity is noticeable”. For the same compound, the “ability of TRAF6 and Ubc13 to form free poly-ubiquitin chains” value [10] was “dose-dependently diminished TRAF6 E3 ligase activity; also recorded: dose-dependently impairs”.
